Experimental data published in patent publication US8637455B2, “Compositions and methods for delivery of glycopeptide antibiotics to medical device surfaces” (Affinergy, LLC, priority 2007, dated 2014).
*1 amine or outer side, *2 acyl side, *3 side chain or, on linkers, in order; H or OH if unused. Bridges are numbered along the chain shown (N, C = ends). Where no end group is shown, it is not given here. [ ]: non-standard residue; d: D form. The star is where a group is joined. (miniPEG)2 = linker of two mini-PEG units, (HN—CH2—CH2—O—CH2—CH2—O—CH2—C═O)2, O=C(COCCOCCN[*:1])NCCOCCOCC(=O)[*:2]; Myristoyl = CCCCCCCCCCCCCC(=O)*; Aun = NCCCCCCCCCCC(=O)O; AEEA = NCCOCCOCC(=O)O; Ahx = NCCCCCC(=O)O

Legend:
[1] = Binding of alkaline-phosphatase linked peptides to immobilized biotinylated vancomycin; conditions: absorbance at 405 nm
From the text: From the peptide amino acid sequence […] (SEQ ID NO: 1) additional peptides were designed and expressed in the bacterial expression system described herein to further evaluate structure-function relationships. A truncated peptide comprising the amino acid sequence of SEQ ID NO:9 (STCLIDMYGVCH) was expressed and compared to a peptide comprising SEQ ID NO:1 for binding affinity for glycopeptide antibiotic. Also produced were a dimer of this truncated peptide (SEQ ID NO:10; […]), a D to A substitution (SEQ ID NO:11; STCLIAMYGVCH), a D to E substitution (SEQ ID NO:12; STCLIEMYGVCH), and a G to S substitution (SEQ ID NO:13; STCLIDMYSVCH). Relative binding strengths of these peptides and of other representative peptides to glycopeptide antibiotic were determined by EC50 values for binding to vancomycin or other glycopeptide antibiotic.
A typical binding assay for glycopeptide antibiotic was performed according to the following procedure. The concentrations of the alkaline-phosphatase linked variant peptides were normalized to equal levels based on the alkaline-phosphatase activity as determined in a kinetic assay with the alkaline-phosphatase specific chromogenic substrate p-nitrophenyl phosphate (p-NPP). A streptavidin coated microtiter plate was coated with biotinylated vancomycin. Serial dilutions of normalized alkaline-phosphatase linked peptides were allowed to bind to the immobilized vancomycin and detected by addition of the alkaline-phosphatase specific chromogenic substrate p-NPP. Relative affinity for peptide binding to the immobilized vancomycin was determined by measuring the absorbance at 405 nm of the colored product of the alkaline phosphatase reaction. […] EC50 values for the synthetic peptides binding to vancomycin were determined as described in Example 1 and are shown in Table 3. Preferred are peptides that bind to glycopeptide antibiotic with binding affinity of EC50 of less than or equal to about 1 μM, and more preferably, in the nanomolar range (e.g., <0.1 μM).

[2] = Vancomycin loading on titanium surface by peptide compositions (HPLC assay); type: binding; conditions: peptide at 10 μM; vancomycin 200 μM; titanium beads; 30 minutes, 4 washes
Description: In one experiment, titanium beads were placed into wells of a 96 well plate. To each well was added a range of concentrations (1-50 μM) of peptide composition comprising at least one surface-binding peptide coupled to at least one glycopeptide antibiotic binding peptide and vancomycin at 200 μM. The appropriate negative controls were also included. The plate was incubated for 30 minutes, and then the wells and beads were washed 4 times with buffer. After washing, 10 mM HCl was added to each well to elute remaining vancomycin from the metal bead. Bound vancomycin was measured by HPLC assay at detection wavelength 214 nm. […] In addition, binding assays performed using stainless steel rather than titanium beads as a representative surface material yielded similar results.

S. aureus = experiment: Bacterial growth with loaded titanium beads, optical density at 600 nm; type: cell-based; conditions: peptide 10 μM + vancomycin 200 μM, 37° C. for 18 hours
Description: In another experiment, antimicrobial activity of the peptide compositions was measured as follows. Titanium beads were placed into wells of a 96 well plate. To each well was added a 10 μM of peptide composition comprising at least one surface-binding peptide coupled to at least one glycopeptide antibiotic binding peptide and vancomycin at 200 μM. The appropriate negative controls were also included. The plate was incubated for 1 hour at 20° C., and then the wells and beads were washed 4 times with buffer. After washing, the beads were transferred to the well of a plate containing S. aureus in log phase growth and incubated at 37° C. for 18 hours. Bacterial growth was assessed by reading optical density at 600 nm.

[3] = test system: Staphylococcus aureus strain MZ100; experiment: In vitro infection assay on titanium beads, colony counts; type: cell-based; conditions: peptide 5 μM + vancomycin 100 μM
Description: To illustrate the antibacterial activity of the peptide compositions, an in vitro infection assay was performed. Briefly, a surface material was contacted with one of the peptide compositions such that the peptide binds to the surface material. The peptide composition can have glycopeptide antibiotic already bound thereto at the time of contacting the peptide with the surface material, or the glycopeptide antibiotic can be contacted with the peptide in a step subsequent to binding the peptide composition to the surface material. The surface material was washed to remove unbound glycopeptide antibiotic, and then contacted with bacterial cells (added from a culture in log phase growth) and incubated to promote bacterial growth. The surface material was washed, and any bacterial cells colonizing the surface material removed and plated to assess bacterial growth.
In one example, Staphylococcus aureus strain MZ100 was used as the representative bacterial cells. First, as a representative surface material, titanium beads were sterilized in acetone in a sonication bath, and then air dried in a sterile hood. The beads were individually placed in sterilized microfuge tubes (one bead per tube). […] The next day, the plates were examined for bacterial growth, and the number of bacterial colonies was quantified per plate.

S. aureus MZ100 = experiment: In vitro infection model on titanium pins, colony counts; type: cell-based; conditions: composition 5 μM + vancomycin 100 μM, two hours with S. aureus MZ100
Description: Acetone-sterilized titanium pins (1 mm diameter, 12 mm long) were first washed in PBS. These pins were then incubated in a solution (PBS) containing the respective composition (5 μM)+vancomycin (100 μM) for 15 minutes at room temperature, with intermittent inversion for coating. Each pin was then washed extensively in PBS and placed in 30 μL of S. aureus MZ100 cultured at 10^6 colony forming units (cfu) per mL, according to methods above. The coated pins were then inoculated in 30 mm lengths of 1.5 mm diameter silicone tubing, with closed ends. After incubation for two hours with shaking, the pin was placed in a new tube containing 1 mL PBS. After inverting several times, PBS was aspirated, and replaced with a fresh 1 mL of PBS. The pins were then sonicated at 20 kHz for four cycles of 15 seconds each. Supernatants (100 μL) and dilutions were plated on trypticase soy agar (TSA) plates, incubated for 24 hours at 37° C., and colonies were counted. An assay control included the same steps of the infection model, except that the pin is uncoated pin (i.e., without composition according to the presently disclosed subject matter bound thereto) (“Control”). As representative examples, compositions comprising the amino acid sequences of SEQ ID NOs: 125 and 126 were tested for antimicrobial activity using the in vitro infection model (see, Table 7, “A” & “B”, respectively).

[4] = test system: binding between vancomycin and a peptide comprising the amino acid sequence of SEQ ID NO:1; experiment: Inhibition by Lys-D-Ala-D-Ala of specific binding between vancomycin and peptide SEQ ID NO:1
Description: As an example, illustrated is the inhibition by Lys-D-Ala-D-Ala of specific binding between vancomycin and a peptide comprising the amino acid sequence of SEQ ID NO:1. To the wells of a 96 well plate coated with streptavidin was added 100 μl of a 0.2 μM solution of biotinylated peptide in buffer-T. After incubation, the wells were blocked by adding 200 μl of a 0.5 mM solution of biotin in buffer-T. The plates were then washed three times with buffer-T. Serial dilutions of Lys-D-Ala-D-Ala were prepared, and added individually to the wells such that Lys-D-Ala-D-Ala ranged in a final concentration of from about 1 μM to about 200 μM (in a volume of 35 μl). Also added to each well was 35 μl of biotinylated vancomycin (20 nM final concentration), and the plate was incubated at 30 minutes for room temperature. The wells were then washed three times with buffer-T, followed by the addition of 100 μl of streptavidin-alkaline phosphatase conjugate (1 mg/ml diluted 1:500 in buffer-T). Following a 30 minute incubation, the wells were washed five times with buffer-T. Added to each well was 100 μl of pNPP, followed by colorimetric detection after 12 minutes at an absorbance of 405 nm.

[5] = Binding assay of peptide for gentamycin; conditions: gentamycin (an aminoglycoside antibiotic); similar assay format as for vancomycin
Description: Using a similar binding assay format as described herein for vancomycin, the ability of a peptide comprising the amino acid sequence of SEQ ID NO: 1 to bind gentamycin (an aminoglycoside antibiotic) was determined.

Q: With STCLIDMYGVCH [compound 9] as the substance, how does the glycopeptide antibiotic binding [1] read?
A: displayed glycopeptide antibiotic binding

Q: For “131 (SSCLIDIYGVCHNFDAY[AEEA][AEEA]SSHRTNHKKNNPKKKNKTRGSSGK; disulfide 3-11 (inferred)) [compound 131]”, which “Picomoles vancomycin/cm^2” value [2] is on record?
A: 76 Picomoles vancomycin/cm^2

Q: And the “inhibition of bacterial growth” value (S. aureus)?
A: complete inhibition

Q: For NHTISKNHKKKNKNSNKTR [SEQ ID NO: 119], which “# of bacterial colonies” value ([3]; 2 hour incubation with MZ100) is on record?
A: 0

Q: For “AUD-AUD-AUD-SSCLIDIYGVCHNFDAY-(miniPEG)2-HKKNNPKKKNKTRGSSK ([Aun][Aun][Aun]SSCLIDIYGVCHNFDAY[(miniPEG)2]HKKNNPKKKNKTRGSSK; disulfide 6-14 (inferred)) [SEQ ID NO: 126]”, which “# of bacterial colonies (CFU)” value (S. aureus MZ100) is on record?
A: <10 CFU

Q: For Lys-D-Ala-D-Ala, which “inhibition of binding between vancomycin and peptide” value ([4]; Lys-D-Ala-D-Ala between 100 μM to 200 μM) is on record?
A: ~100%

Q: What about the IC50 ([4]; biotinylated vancomycin 20 nM, immobilized peptide SEQ ID NO:1, read-out: concentration of Lys-D-Ala-D-Ala needed to inhibit about 50% of the binding between vancomycin and peptide) of the same substance?
A: ~10 µM

Q: Which glycopeptide antibiotic binding [1] does the source give for STCLIDMYGVCHSSCLIDMYGVCH [compound 10] here?
A: displayed glycopeptide antibiotic binding

Q: With “Myr-Ahx-SSCLIDIYGVCHNFDAY-(miniPEG)2-HKKNNPKKKNKTRGSSK ({Myristoyl-Ahx}-SSCLIDIYGVCHNFDAY[(miniPEG)2]HKKNNPKKKNKTRGSSK; disulfide 3-11 (inferred)) [SEQ ID NO: 125]” as the substance, how does the “# of bacterial colonies (CFU)” value (S. aureus MZ100) read?
A: 100 CFU

Q: With “119 (NHTISKNHKKKNKNSNKTR) [compound 119]” as the substance, how does the “bacterial growth on the plates” value [3] read?
A: completely inhibited

Q: Which results are given for “130 (SSCLIDIYGVCHNFDAY[AEEA][AEEA]HKKNNPKKKNKTRGSSK; disulfide 3-11 (inferred)) [compound 130]”?
A: Picomoles vancomycin/cm^2 [2]: 83 Picomoles vancomycin/cm^2; inhibition of bacterial growth (S. aureus): complete inhibition

Q: For 12 (STCLIEMYGVCH) [compound 12], which glycopeptide antibiotic binding [1] is on record?
A: no detectable glycopeptide antibiotic binding

Q: For 11 (STCLIAMYGVCH) [compound 11], which glycopeptide antibiotic binding [1] is on record?
A: no detectable glycopeptide antibiotic binding

Q: For CLIDMYGVCHNFDGAYDS [compound 1], which “binding affinity for gentamycin” value [5] is on record?
A: lacked significant binding affinity

Q: Which glycopeptide antibiotic binding [1] does the source give for 13 (STCLIDMYSVCH) [compound 13] here?
A: no detectable glycopeptide antibiotic binding
